Converted amounts (≈) assume the structure as drawn.
Settings: for aqueous solubility: pH 6.8

SMILES	MDR1-MDCK efflux ratio	intrinsic clearance, human liver microsomes [mL/min/kg]	intrinsic clearance, rat liver microsomes [mL/min/kg]	aqueous solubility [µg/mL]	fraction unbound, human plasma	fraction unbound, rat plasma
CNCc1cc(NC)nc(C2CCCN2C(=O)C(C)(C)c2ccc(C)cc2)n1 (stereo not drawn)	36.8	16.2	153	–	–	–
c1cnc2c(Oc3ncnc4sccc34)cccc2c1	–	44.3	244	–	–	–
c1ccc(Nc2nc(N3CCNCC3)nc(N3CCOCC3)n2)cc1	43.2	≤ 4.74	57	–	–	–
C=C(C)COc1ccc(C(=O)NCCc2cn3ccccc3n2)cc1	–	116	2190	27.4 (≈ 81.7 µM)	–	–
O=C(Nc1ccc(COC2CCCC2)cc1)N1CCC(CO)CC1	5.55	≤ 4.74	329	–	–	–
N#Cc1c(N)nc(SCC(N)=O)c(C#N)c1-c1ccc(OCC2CC2)cc1	42.5	–	–	0.52 (≈ 1.37 µM)	–	–
CC(C)(C)Sc1c(CC(C)(C)C(=O)O)n(Cc2ccc(Cl)cc2)c2ccc(OCc3ccc4ccccc4n3)cc12	2.37	28.7	142	6.1 (≈ 10.4 µM)	–	–
CCOc1ccc(-c2csc(N)n2)cc1	0.572	102	338	6.55 (≈ 29.7 µM)	–	–
CNC(=O)c1ccc(/C=C/c2nc3cc(Cl)ccc3o2)cc1	0.598	–	–	0.76 (≈ 2.43 µM)	–	–
CC(C)C(=O)Nc1ncn(Cc2cccnc2)n1	16.3	≤ 4.74	≤ 10.7	38 (≈ 155 µM)	–	–
C[C@@H](NC(=O)c1cc(Br)c2c(c1)OCCO2)c1cn(-c2ccccc2)nn1	3.48	–	–	–	–	–
COc1ccc(-n2cc3c(c2-c2ccccc2Br)c(=O)n(C)c(=O)n3C)cc1	0.946	37.5	521	4.92 (≈ 11.2 µM)	–	–
CC(=O)c1cc(Br)cc(F)c1OCc1ccccn1	0.622	66	316	–	–	–
CN(C)C(=O)OCCN1CCC(c2c[nH]c3ncccc23)CC1	6.4	29.6	101	50 (≈ 158 µM)	–	–
CC1(C)COCCN1Cc1cnn(-c2ccccc2)n1	0.545	10.7	1070	14.7 (≈ 54.1 µM)	–	–
CNc1ccc(/C=C/c2ccc(OCCOCCOCCF)nc2)cc1	0.533	253	564	–	–	–
Cc1ccc(-c2nc(CN3C(=O)C(=O)N(C4CCCC4)C3=O)cs2)cc1	0.789	–	–	0.26 (≈ 0.704 µM)	–	–
Cc1cnn(CC(=O)NCCCn2cc(Cl)cn2)c1	2.34	≤ 4.74	47.2	–	–	–
CCc1nc(NC(=O)c2ccccc2F)sc1C	0.232	26	146	23 (≈ 87.1 µM)	–	–
CCCNC(=O)c1c(C)nn(-c2ccccc2)c1C	0.668	13.1	2060	30.7 (≈ 119 µM)	–	–
COc1cc2ncnc(Nc3cccc(O)c3)c2cc1OC	–	22	154	–	0.0987	0.0447
Brc1ccc(-c2nnc(Cn3cnc4ccccc43)o2)o1	0.976	≤ 4.74	41.1	62.7 (≈ 182 µM)	–	–
CCN(CC)CC(=O)N1CCC(n2c(=O)[nH]c3ccccc32)CC1	–	≤ 4.74	23.5	48.9 (≈ 148 µM)	–	–

— the Biogen ADME set (Fang et al. 2023)
